Results on three compounds are retold here after US9981042B2, “Carbon nanotube-based anti-cancer agent capable of suppressing drug resistance” (INDUSTRY-ACADEMIC COOPERATION FOUNDATION GYEONGSANG …, priority 2012, dated 2018).

Data set [1] deals with MDA-MB-231 tumor tissue. Kind of data set: Histopathological observation (Haematoxylin-Eosin) of tumor tissues. The data set is classed as in vivo, BALB/c nude mice. The following applies: H&E; doxorubicin 0.5 and 5 mg/kg, DOX-mwCNT-25 0.5 mg/kg; versus control. The procedure:
Then, the present inventors anesthetized the mice with ethyl ether, sacrificed them and collected tumor tissues therefrom. After measuring the weight of the collected tumor tissues, the tumor tissues were fixed for 24 hours in 10% formalin, washed with water and dehydrated and dipped in 70, 80, 90, 95 and 100% of ethanol, serially. The tissues were transparentized with xylene and embedded in paraffin. And then the embedded tissues were sliced at a thickness of 5 um, placed on glass slides.

Data set [2] concerns MDA-MB-231 tumor. Kind of data set: Tumor size and weight in MDA-MB-231 tumor model mice after tail vein injection. The data set is classed as in vivo, BALB/c nude mice. The procedure:
To prepare the animal tumor model, MDA-MB-231 cells were inoculated subcutaneously in the flank of female BALB/c nu/nu (athymic nude) mice (5×10^6 cells per mouse) When the tumor reached a mean volume of 100 mm^3 in the mice were used for the following Experimental Examples.
First, the tumor model mice prepared by transplanting MDA-MB-231 tumor cells to BALB/c nude mice were randomly divided into seven groups (n=10 per group) and injected with 200 μL of 0.5 mg/kg DOX, mwCNT, DOX-mwCNT in PBS, or pure PBS (negative control) in the tail vein. Subjects were weighed at 2, 9, and 16 days. Body weight and tumor sizes were measured twice a week for 21 days, and tumor volumes were calculated by the formula: V(volume)=X(length)×D(width)^2/2.
Twenty one day after the tail vein injection, the changes in tumor size of sacrificed animals were determined.
Furthermore, after the administration of the anticancer agent, tumor tissues taken from the sacrificed animals were weighed. In this case, in order to compare the significance of each group, Prism (GraphPad Software, Inc.) was used for statistical analysis with one-way ANOVA (analysis of variance) (** P<0.01, *** P<0.001).

Data set [3] concerns MDA-MB-231 cells. As to the kind of experiment: Efflux from cells (fluorescence microscopy). The data set is classed as cell-based. The following applies: 100 ng/ml for 2 h, then drug-free medium.
Description: In addition, for efflux analysis, MDA-MB-231 cells (1×10^4 cells/well) cultivated in 24 well plate were treated with 100 ng/ml of DOX-mwCNT according to an embodiment of the present invention and doxorubicin, respectively. Two hours after the treatment, culture media was removed and the cells were washed three times with PBS and incubated with regular culture medium containing no anticancer agents for 24 h. Then the degree of efflux of doxorubicin from the cells was observed using a fluorescent microscope (FIG. 27). […] In the experiment, zero time (0 h) means a time when 2 hours has elapsed after removing doxorubicin and washing cells with PBS.
Data set [4] relates to late endosomes in MDA-MB-231 cells. Kind of data set: High resolution imaging of doxorubicin and late endosome marker. The data set is classed as cell-based. The following applies: 24 h. The procedure: Furthermore, the present inventors performed a high resolution image analysis for 24 h in order to investigate the degradation of uptaken doxorubicin signal by co-staining doxorubicin and late endosome specific marker. […] Therefore, it was understood that late endosomes act as transporters of doxorubicin excreted from nucleus.

Data set [5] concerns Mrp-1. As to the kind of experiment: Mrp-1 mRNA expression by RT-PCR. The data set is classed as cell-based. The following applies: 100 ng/ml for 2 h; after 6 hours and later. The procedure:
(§1) MDA-MB-231 breast cancer cells (4×10^5 cells/well) known to overexpress MRP1 were plated in a 6 well plate and 100 ng/ml of doxorubicin and DOX-mwCNT were treated to the cells for 2 h, respectively. Carbon nanotube as a control was treated with a concentration of 348 ng/ml for 2 h.
Two hours after treatment, culture mediums were replaced with DMEM medium supplemented with 10% FBS and not containing mwCNT, DOX, and DOX-mwCNT, and the cells were further incubated. Then RNA was isolated from cells after 2, 6, 12, 24, and 36 hours of incubation, respectively and then Mrp-1 mRNA level was analyzed. In this case, TRIZOL reagent (Invitrogen, USA) and chloroform were used for RNA isolation, then the isolated RNA was reacted with same volume of isopropanol for 2 h, quantified and subjected to RT-PCR (reverse transcriptase PCR).

The test system of data set [6] is MRP-1 protein. Kind of data set: MRP-1 protein western blot. The format is cell-based. To be noted: 100 ng/ml for 2 h; 24 hours after the treatment. The protocol:
as §1
To confirm the above result in protein level, the present inventors performed western bot analysis of the MRP-1 protein, there was a significant difference in protein expression of MRP-1 between doxorubicin- and DOX-mwCNT-25-treating groups (FIG. 30). […] Despite of previous studies reporting that Mdr-1 and Mrp-1 genes mediate drug resistance of MDA-MB-231, Mdr-1 was hardly detected in this experiment due to short drug exposure time (2 hours).

Data set [7] in a line: Particle size by transmission electron microscope. The following applies: in PBS.
In data set [8] the test system is A549 cells. Kind of data set: MTT assay on lung cancer cells. The data set is classed as cell-based. The following applies: A549, 48 h, 0.086-1.38 μmol/L. The protocol:
A549 cells (1×10^4 cells/well, CAT: CRL-1658, ATCC) were seeded in a 96-well plate and incubated with DMEM medium supplementing 10% FBS (fetal bovine serum). At this time, the culture was maintained under the condition of 5% of CO2 at 37° C. The cells were cultured for 24 h and mwCNT-COOH, EPI, EPI-EGF, EPI-mwCNT and EPI-EGF-mwCNT were treated to each well with ratios of 0.086, 0.172, 0.345, 0.69, 1.38 μmol/L, respectively and then further cultured for 48 h. And then, drug solutions were removed from the plate, 100 μl of MTT reagent (1 mg/ml, 3-(4,5-dimethylthiazol-2-yl)-2,5-diphenyltetrazolium bromide) was slowly added to each well, and incubated for 1 h at 37° C. Thereafter, 100 μl of DMSO solution per well was added, followed by measuring absorbance at 560 nm using a microplate reader (Model 680, Bio-Rad).
Then, the present inventors treated drugs containing doxorubicin (DOX-EGF, DOX-mwCNT-25, DOX-EGF-mwCNT) to the same lung cancer cell A549. All the condition except drugs were same.
Background: Tetrazolium assays rely on reduction of a dye to a coloured formazan, in cell work by metabolically active cells.

For `COc1cccc2c1C(=O)c1c(O)c3c(c(O)c1C2=O)C[C@@](O)(C(=O)CO)C[C@@H]3O[C@H]1C[C@H](N)[C@H](O)[C@H](C)O1` [DOX, doxorubicin], in data set [1], the “necrosis / damage of tumor tissue” value is “increased necrosis”. Also, the “volume and mass of tumors” value in data set [2] (0.5 mg/kg, three times I.V. injection, 21 days) is “no notable tumor inhibition”. Also, the “size of tumor tissue compared to control group” value in data set [2] (large dose 5 mg/kg) is on record as “decreased significantly”. In addition, the “time to complete excretion from cells” value in data set [3] was 6˜12 hours. In data set [4], the late endosome signal entry is “few late endosomes were observed”. Also, the “expression of Mrp-1 gene” value in data set [5] is reported as “decreased”. Moreover, the “protein expression of MRP-1” value in data set [6] is listed as “weak band”. The “particle size (length variation)” value in data set [7] is given as 0-40 nm.
As to `COc1cccc2c1C(=O)c1c(O)c3c(c(O)c1C2=O)C[C@@](O)(C(=O)CO)C[C@@H]3O[C@H]1C[C@H](N)[C@@H](O)[C@H](C)O1` [EPI, epirubicin], the “viability compared to group treated with only mwCNT-COOH” value in data set [8] is on record as “lower viability”.
Still for that read-out and setting: next, “EPI-EGF (NSDSECPLSHDGYCLHDGVCMYIEALDKYACNCVVGYIGERCQYRDLKWWELR; Epidermal growth factor epirubicin conjugate; UniProt P01133 971-1023, looked up)”: “lower viability”.
